Laboratory results from patent US20080213376A1, “Medicament that is Intended for Oral Administration, Comprising a Cyclooxygenase-2 Inhibitor, and Preparation Method Thereof” (VETOQUINOL, priority 2005, published 2008).
Values after ≈ are worked out from the molar mass of the structure shown.

Test: Solubility by HPLC in approximately 0.1N HCl medium
Type: physicochemical
Settings: simulated gastric fluid, thermodynamic from solid, HPLC technique
Description: By way of indication, the solubility S0 of the cimicoxib powder alone and the solubility S2 of the particle agglomerate according to this second example of the invention were measured by the HPLC (high performance liquid chromatography) technique and in an approximately 0.1N HCl medium, with the following results (solubilities in milligrams/liter):
By way of indication, the solubility S5 of this particle agglomerate according to this fifth example of the invention was compared to the solubility S0 of the cimicoxib powder alone by the HPLC technique and in an approximately 0.1N HCl medium, with the following results (milligrams/liter): […]

## COc1ccc(-c2c(Cl)ncn2-c2ccc(S(N)(=O)=O)cc2)cc1F [cimicoxib powder alone, cimicoxib]
  solubility: 3.1 µg/mL (≈ 8.12 µM)
